# Measurements as given in PubChem BioAssay AID1259407 (Chemical Carcinogenesis Research Information System (CCRIS), 2018).
# The source made the active and inactive calls. The rule behind the calls is not given here.
# System: CCRIS mutagenicity, Ames/micronucleus/aberration tests
# Experiment: CCRIS mutagenicity studies
# [1] = Test System: AMES SALMONELLA TYPHIMURIUM, Strain/Indicator: TA98, Metabolic Activation: NONE, Method: STANDARD PLATE
# [2] = Test System: AMES SALMONELLA TYPHIMURIUM, Strain/Indicator: TA98, Metabolic Activation: RAT, LIVER, S-9, AROCLOR 1254, Method: STANDARD PLATE
# [3] = Test System: AMES SALMONELLA TYPHIMURIUM, Strain/Indicator: TA100, Metabolic Activation: NONE, Method: STANDARD PLATE
# [4] = Test System: AMES SALMONELLA TYPHIMURIUM, Strain/Indicator: TA100, Metabolic Activation: RAT, LIVER, S-9, AROCLOR 1254, Method: STANDARD PLATE
# [5] = Test System: AMES SALMONELLA TYPHIMURIUM, Strain/Indicator: TA98, Metabolic Activation: NONE, Method: PREINCUBATION
# [6] = Test System: AMES SALMONELLA TYPHIMURIUM, Strain/Indicator: TA100, Metabolic Activation: NONE, Method: PREINCUBATION
# [7] = Test System: AMES SALMONELLA TYPHIMURIUM, Strain/Indicator: TA1535, Metabolic Activation: NONE, Method: PREINCUBATION
# [8] = Test System: AMES SALMONELLA TYPHIMURIUM, Strain/Indicator: TA1537, Metabolic Activation: NONE, Method: PREINCUBATION
structure (smiles),measurement,setting,value
CC1(C)C(C=C(Cl)Cl)C1C(=O)OC(C#N)c1cccc(Oc2ccccc2)c1 (stereo not given),mutagenic call,"Test System: AMES SALMONELLA TYPHIMURIUM, Strain/Indicator: TA97, Metabolic Activation: BARLEY, HOMOGENATES, Method: STANDARD PLATE",inactive; negative
same,mutagenic call,"Test System: AMES SALMONELLA TYPHIMURIUM, Strain/Indicator: TA97, Metabolic Activation: NONE, Method: STANDARD PLATE",inactive; negative
same,mutagenic call,"Test System: AMES SALMONELLA TYPHIMURIUM, Strain/Indicator: TA97, Metabolic Activation: RAT, LIVER, S-9, DELOR 103, Method: STANDARD PLATE",inactive; negative
same,mutagenic call,"Test System: AMES SALMONELLA TYPHIMURIUM, Strain/Indicator: TA98, Metabolic Activation: BARLEY, HOMOGENATES, Method: STANDARD PLATE",inactive; negative
same,mutagenic call,[1],inactive; negative
same,mutagenic call,[2],inactive; negative
same,mutagenic call,"Test System: AMES SALMONELLA TYPHIMURIUM, Strain/Indicator: TA98, Metabolic Activation: RAT, LIVER, S-9, DELOR 103, Method: STANDARD PLATE",inactive; negative
same,mutagenic call,"Test System: AMES SALMONELLA TYPHIMURIUM, Strain/Indicator: TA100, Metabolic Activation: BARLEY, HOMOGENATES, Method: STANDARD PLATE",inactive; negative
same,mutagenic call,[3],inactive; negative
same,mutagenic call,[4],inactive; negative
same,mutagenic call,"Test System: AMES SALMONELLA TYPHIMURIUM, Strain/Indicator: TA100, Metabolic Activation: RAT, LIVER, S-9, DELOR 103, Method: STANDARD PLATE",inactive; negative
same,mutagenic call,"Test System: AMES SALMONELLA TYPHIMURIUM, Strain/Indicator: TA1535, Metabolic Activation: BARLEY, HOMOGENATES, Method: STANDARD PLATE",inactive; negative
same,mutagenic call,"Test System: AMES SALMONELLA TYPHIMURIUM, Strain/Indicator: TA1535, Metabolic Activation: NONE, Method: STANDARD PLATE",inactive; negative
same,mutagenic call,"Test System: AMES SALMONELLA TYPHIMURIUM, Strain/Indicator: TA1535, Metabolic Activation: RAT, LIVER, S-9, AROCLOR 1254, Method: STANDARD PLATE",inactive; negative
same,mutagenic call,"Test System: AMES SALMONELLA TYPHIMURIUM, Strain/Indicator: TA1535, Metabolic Activation: RAT, LIVER, S-9, DELOR 103, Method: STANDARD PLATE",inactive; negative
same,mutagenic call,"Test System: AMES SALMONELLA TYPHIMURIUM, Strain/Indicator: TA1537, Metabolic Activation: NONE, Method: STANDARD PLATE",inactive; negative
same,mutagenic call,"Test System: AMES SALMONELLA TYPHIMURIUM, Strain/Indicator: TA1537, Metabolic Activation: RAT, LIVER, S-9, AROCLOR 1254, Method: STANDARD PLATE",inactive; negative
same,mutagenic call,"Test System: AMES SALMONELLA TYPHIMURIUM, Strain/Indicator: TA1538, Metabolic Activation: NONE, Method: STANDARD PLATE",inactive; negative
same,mutagenic call,"Test System: AMES SALMONELLA TYPHIMURIUM, Strain/Indicator: TA1538, Metabolic Activation: RAT, LIVER, S-9, DELOR 103, Method: STANDARD PLATE",inactive; negative
same,mutagenic call,"Test System: CHINESE HAMSTER V-79, Strain/Indicator: V-79/6-THIOGUANINE, Metabolic Activation: NONE, Method: STANDARD PLATE",inactive; negative
same,mutagenic call,"Test System: CHINESE HAMSTER V-79, Strain/Indicator: V-79/6-THIOGUANINE, Metabolic Activation: RAT HEPATOCYTES, Method: STANDARD PLATE",inactive; negative
same,mutagenic call,"Test System: CHINESE HAMSTER V-79, Strain/Indicator: V-79/OUABAIN, Metabolic Activation: NONE, Method: STANDARD PLATE",inactive; negative
same,mutagenic call,"Test System: CHINESE HAMSTER V-79, Strain/Indicator: V-79/OUABAIN, Metabolic Activation: RAT HEPATOCYTES, Method: STANDARD PLATE",inactive; negative
same,mutagenic call,"Test System: E. COLI, Strain/Indicator: WP2, Metabolic Activation: NONE, Method: STANDARD PLATE",inactive; negative
same,mutagenic call,"Test System: E. COLI, Strain/Indicator: WP2, Metabolic Activation: RAT, LIVER, S-9, AROCLOR 1254, Method: STANDARD PLATE",inactive; negative
O=C(O)Cc1ccccc1[N+](=O)[O-],mutagenic call,[5],inactive; negative
same,mutagenic call,[6],active; positive
same,mutagenic call,[7],active; positive
same,mutagenic call,[8],inactive; negative
same,mutagenic call,"Test System: AMES SALMONELLA TYPHIMURIUM, Strain/Indicator: TA1538, Metabolic Activation: NONE, Method: PREINCUBATION",active; positive
N[C@@H](Cc1c[nH]c2ccc(O)cc12)C(=O)O,mutagenic call,[6],inactive; negative
Cl/C=C(\Cl)c1c(Cl)c(Cl)c(Cl)c(Cl)c1Cl,mutagenic call,[1],inactive; negative
same,mutagenic call,[2],inactive; negative
same,mutagenic call,[3],inactive; negative
same,mutagenic call,[4],inactive; negative
CN1CCOCC1,mutagenic call,[5],inactive; negative
same,mutagenic call,"Test System: AMES SALMONELLA TYPHIMURIUM, Strain/Indicator: TA98, Metabolic Activation: RAT, LIVER, S-9, PCB, Method: PREINCUBATION",inactive; negative
same,mutagenic call,[6],inactive; negative
same,mutagenic call,"Test System: AMES SALMONELLA TYPHIMURIUM, Strain/Indicator: TA100, Metabolic Activation: RAT, LIVER, S-9, PCB, Method: PREINCUBATION",inactive; negative
c1ccc(N2CCNCC2)cc1,mutagenic call,"Test System: AMES SALMONELLA TYPHIMURIUM, Strain/Indicator: TA97, Metabolic Activation: HAMSTER, LIVER, S-9, AROCLOR 1254, Method: PREINCUBATION",inactive; negative
same,mutagenic call,"Test System: AMES SALMONELLA TYPHIMURIUM, Strain/Indicator: TA97, Metabolic Activation: NONE, Method: PREINCUBATION",inactive; negative
same,mutagenic call,"Test System: AMES SALMONELLA TYPHIMURIUM, Strain/Indicator: TA97, Metabolic Activation: RAT, LIVER, S-9, AROCLOR 1254, Method: PREINCUBATION",inactive; negative
same,mutagenic call,"Test System: AMES SALMONELLA TYPHIMURIUM, Strain/Indicator: TA98, Metabolic Activation: HAMSTER, LIVER, S-9, AROCLOR 1254, Method: PREINCUBATION",inactive; negative
same,mutagenic call,[5],inactive; negative
same,mutagenic call,"Test System: AMES SALMONELLA TYPHIMURIUM, Strain/Indicator: TA98, Metabolic Activation: RAT, LIVER, S-9, AROCLOR 1254, Method: PREINCUBATION",inactive; negative
same,mutagenic call,"Test System: AMES SALMONELLA TYPHIMURIUM, Strain/Indicator: TA100, Metabolic Activation: HAMSTER, LIVER, S-9, AROCLOR 1254, Method: PREINCUBATION",inactive; negative
same,mutagenic call,[6],inactive; negative
same,mutagenic call,"Test System: AMES SALMONELLA TYPHIMURIUM, Strain/Indicator: TA100, Metabolic Activation: RAT, LIVER, S-9, AROCLOR 1254, Method: PREINCUBATION",inactive; negative
[Cl][Pd][Cl],mutagenic call,"Test System: AMES SALMONELLA TYPHIMURIUM, Strain/Indicator: TA98, Metabolic Activation: HAMSTER, LIVER, S-9, AROCLOR 1254 (10%), Method: PREINCUBATION",inactive; negative
same,mutagenic call,[5],inactive; negative
same,mutagenic call,"Test System: AMES SALMONELLA TYPHIMURIUM, Strain/Indicator: TA98, Metabolic Activation: RAT, LIVER, S-9, AROCLOR 1254 (10%), Method: PREINCUBATION",inactive; negative
same,mutagenic call,"Test System: AMES SALMONELLA TYPHIMURIUM, Strain/Indicator: TA100, Metabolic Activation: HAMSTER, LIVER, S-9, AROCLOR 1254 (10%), Method: PREINCUBATION",inactive; negative
same,mutagenic call,[6],inactive; negative
same,mutagenic call,"Test System: AMES SALMONELLA TYPHIMURIUM, Strain/Indicator: TA100, Metabolic Activation: RAT, LIVER, S-9, AROCLOR 1254 (10%), Method: PREINCUBATION",inactive; negative
same,mutagenic call,"Test System: AMES SALMONELLA TYPHIMURIUM, Strain/Indicator: TA1535, Metabolic Activation: HAMSTER, LIVER, S-9, AROCLOR 1254 (10%), Method: PREINCUBATION",inactive; negative
same,mutagenic call,[7],inactive; negative
same,mutagenic call,"Test System: AMES SALMONELLA TYPHIMURIUM, Strain/Indicator: TA1535, Metabolic Activation: RAT, LIVER, S-9, AROCLOR 1254 (10%), Method: PREINCUBATION",inactive; negative
same,mutagenic call,"Test System: AMES SALMONELLA TYPHIMURIUM, Strain/Indicator: TA1537, Metabolic Activation: HAMSTER, LIVER, S-9, AROCLOR 1254 (10%), Method: PREINCUBATION",inactive; negative
same,mutagenic call,[8],inactive; negative
same,mutagenic call,"Test System: AMES SALMONELLA TYPHIMURIUM, Strain/Indicator: TA1537, Metabolic Activation: RAT, LIVER, S-9, AROCLOR 1254 (10%), Method: PREINCUBATION",inactive; negative
